Test results taken from ChEMBL document CHEMBL1143865, “Pyrazinoindolone inhibitors of MAPKAP-K2” (Bioorg Med Chem Lett, 2008).
Values belong to the compound of their own block, whether it stands above or below them. Activity calls are given as the source filed them. The rule behind the calls is not given here.

Assays:
[1] = test system: THP-1; assay: Inhibition of LPS-induced TNFalpha production in human THP1 cells
[2] = AUC (0 to infinity) in BALB/c mouse at 0.5 mg/kg, iv; format: ADME, organism-based; set-up: time infinity, dose 0.5 mg/kg, route intravenous; conditions: plasma
[3] = AUC (0 to infinity) in BALB/c mouse at 1.0 mg/kg, po; format: ADME, organism-based; set-up: time infinity, dose 1 mg/kg, route oral; conditions: plasma
[4] = Oral bioavailability in BALB/c mouse at 1.0 mg/kg; format: ADME, organism-based; conditions: in vivo
[5] = test system: Mus musculus; assay: Clearance in BALB/c mouse at 0.5 mg/kg, iv expressed as %Q; format: ADME, organism-based; set-up: dose 0.5 mg/kg, route intravenous; conditions: in vivo
[6] = Cmax in BALB/c mouse at 1.0 mg/kg, po; format: ADME, organism-based; set-up: dose 1 mg/kg, route oral; conditions: in vivo
[7] = Solubility at pH 7.4; format: physicochemical; conditions: buffer
[8] = Mean retention time in BALB/c mouse at 0.5 mg/kg, iv; format: ADME, organism-based; set-up: dose 0.5 mg/kg, route intravenous; conditions: in vivo
[9] = target: Rho-associated protein kinase 2 (Homo sapiens) (UniProt O75116); assay: Inhibition of ROCK2 at 10 uM
[10] = target: Serine/threonine-protein kinase Chk2 (Homo sapiens) (UniProt O96017); assay: Inhibition of CHK2 at 10 uM
[11] = target: Mitogen-activated protein kinase 1 (Homo sapiens, UniProt P28482); assay: Inhibition of Erk2
[12] = Inhibition of MNK2alpha at 10 uM
[13] = target: T1, Mitogen-activated protein kinase 15 (Homo sapiens) (UniProt Q8TD08); assay: Inhibition of ERK8 at 10 uM
T1 sequence (whole entry): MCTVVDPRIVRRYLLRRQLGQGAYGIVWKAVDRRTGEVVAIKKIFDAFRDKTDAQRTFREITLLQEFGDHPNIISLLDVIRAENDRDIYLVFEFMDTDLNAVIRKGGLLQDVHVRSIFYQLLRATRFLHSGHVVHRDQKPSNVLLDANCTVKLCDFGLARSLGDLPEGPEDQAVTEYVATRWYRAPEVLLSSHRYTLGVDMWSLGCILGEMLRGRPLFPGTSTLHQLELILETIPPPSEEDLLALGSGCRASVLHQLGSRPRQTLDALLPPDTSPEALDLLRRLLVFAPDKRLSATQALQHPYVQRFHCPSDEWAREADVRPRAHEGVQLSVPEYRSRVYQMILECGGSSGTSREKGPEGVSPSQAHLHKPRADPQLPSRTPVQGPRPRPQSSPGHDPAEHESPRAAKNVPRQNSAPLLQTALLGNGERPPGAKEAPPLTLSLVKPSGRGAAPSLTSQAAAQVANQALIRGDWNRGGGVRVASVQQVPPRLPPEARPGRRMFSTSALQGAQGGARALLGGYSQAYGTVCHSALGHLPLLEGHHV

[14] = target: SRSF protein kinase 1 (Homo sapiens) (UniProt Q96SB4); assay: Inhibition of SRPK1 at 10 uM
[15] = target: Glycogen synthase kinase-3 beta (Homo sapiens, UniProt P49841); assay: Inhibition of GSK3-beta
[16] = target: Dual specificity tyrosine-phosphorylation-regulated kinase 1A (Homo sapiens) (UniProt Q13627); assay: Inhibition of DYRK1A at 10 uM
[17] = target: T2, MAP kinase-activated protein kinase 5 (Homo sapiens) (UniProt Q8IW41); assay: Inhibition of PRAK at 10 uM
T2 sequence (whole entry): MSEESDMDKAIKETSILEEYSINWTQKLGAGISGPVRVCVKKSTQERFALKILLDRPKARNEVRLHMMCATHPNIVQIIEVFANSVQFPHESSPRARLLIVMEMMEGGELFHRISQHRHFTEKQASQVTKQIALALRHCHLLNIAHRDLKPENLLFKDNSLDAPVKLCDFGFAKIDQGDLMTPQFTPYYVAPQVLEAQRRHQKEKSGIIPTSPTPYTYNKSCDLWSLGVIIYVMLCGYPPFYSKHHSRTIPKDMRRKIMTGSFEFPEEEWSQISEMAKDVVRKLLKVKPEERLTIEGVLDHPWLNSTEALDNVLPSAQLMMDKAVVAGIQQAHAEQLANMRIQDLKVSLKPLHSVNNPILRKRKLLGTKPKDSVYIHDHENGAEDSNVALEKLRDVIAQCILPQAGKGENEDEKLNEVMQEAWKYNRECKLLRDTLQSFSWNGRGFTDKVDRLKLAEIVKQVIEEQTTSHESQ

[18] = target: T3, Lymphokine-activated killer T-cell-originated protein kinase (Homo sapiens) (UniProt Q96KB5); assay: Inhibition of PBK at 10 uM
T3 sequence (whole entry): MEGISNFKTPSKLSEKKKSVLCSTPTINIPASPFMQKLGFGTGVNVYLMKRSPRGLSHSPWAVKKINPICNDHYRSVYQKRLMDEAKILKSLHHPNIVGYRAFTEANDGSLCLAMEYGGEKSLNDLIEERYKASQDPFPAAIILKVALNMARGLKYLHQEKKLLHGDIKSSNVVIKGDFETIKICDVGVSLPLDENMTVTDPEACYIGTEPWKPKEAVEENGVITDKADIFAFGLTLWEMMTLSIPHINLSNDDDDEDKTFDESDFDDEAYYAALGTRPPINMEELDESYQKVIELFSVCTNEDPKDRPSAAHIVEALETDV

[19] = target: Mitogen-activated protein kinase kinase kinase 14 (Homo sapiens, UniProt Q99558); assay: Inhibition of NIK
[20] = target: T4, Serine/threonine-protein kinase 3 (Homo sapiens) (UniProt Q13188); assay: Inhibition of MST2 at 10 uM
T4 sequence (whole entry): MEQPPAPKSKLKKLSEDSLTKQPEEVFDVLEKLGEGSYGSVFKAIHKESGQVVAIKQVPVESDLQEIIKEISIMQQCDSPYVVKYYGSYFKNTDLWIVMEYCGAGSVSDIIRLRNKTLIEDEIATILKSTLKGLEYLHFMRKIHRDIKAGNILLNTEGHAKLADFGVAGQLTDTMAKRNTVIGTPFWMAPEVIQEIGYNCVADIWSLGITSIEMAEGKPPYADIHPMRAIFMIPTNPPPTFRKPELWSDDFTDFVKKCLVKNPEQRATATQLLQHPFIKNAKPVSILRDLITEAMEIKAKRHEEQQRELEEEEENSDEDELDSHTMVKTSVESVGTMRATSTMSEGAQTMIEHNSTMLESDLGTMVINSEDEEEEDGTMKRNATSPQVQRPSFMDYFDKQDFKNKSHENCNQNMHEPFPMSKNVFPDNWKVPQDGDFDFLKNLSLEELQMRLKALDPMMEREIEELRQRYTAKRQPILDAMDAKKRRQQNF

[21] = target: 3-phosphoinositide-dependent protein kinase 1 (Homo sapiens) (UniProt O15530); assay: Inhibition of PDK1 at 10 uM
[22] = target: Dual specificity protein kinase CLK1 (Homo sapiens, UniProt P49759); assay: Inhibition of CLK1
[23] = Inhibition of MAPKAP-K1
[24] = Inhibition of AMPK at 10 uM
[25] = target: MAP kinase-activated protein kinase 2 (Homo sapiens, UniProt P49137)
[26] = Drug level in mouse plasma at 60 mg/kg, po after 90 mins; format: ADME, organism-based; set-up: dose 60 mg/kg, route oral
[27] = test system: Mus musculus; assay: Inhibition of LPS-stimulated TNFalpha production in mouse at 60 mg/kg, po; format: functional, organism-based; set-up: dose 60 mg/kg

Sequence of MAP kinase-activated protein kinase 2 (P49137 whole entry): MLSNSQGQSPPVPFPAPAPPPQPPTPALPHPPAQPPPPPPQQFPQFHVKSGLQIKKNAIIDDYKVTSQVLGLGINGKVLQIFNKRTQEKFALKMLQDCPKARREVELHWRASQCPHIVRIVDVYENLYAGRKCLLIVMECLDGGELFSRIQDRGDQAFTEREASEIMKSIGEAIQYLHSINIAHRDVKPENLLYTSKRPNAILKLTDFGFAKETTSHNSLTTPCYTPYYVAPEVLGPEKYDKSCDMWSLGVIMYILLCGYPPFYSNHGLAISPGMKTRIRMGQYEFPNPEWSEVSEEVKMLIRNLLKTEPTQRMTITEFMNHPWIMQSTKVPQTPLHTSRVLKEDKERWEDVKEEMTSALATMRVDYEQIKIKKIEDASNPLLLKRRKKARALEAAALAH
Sequence of Mitogen-activated protein kinase 1 (P28482 whole entry): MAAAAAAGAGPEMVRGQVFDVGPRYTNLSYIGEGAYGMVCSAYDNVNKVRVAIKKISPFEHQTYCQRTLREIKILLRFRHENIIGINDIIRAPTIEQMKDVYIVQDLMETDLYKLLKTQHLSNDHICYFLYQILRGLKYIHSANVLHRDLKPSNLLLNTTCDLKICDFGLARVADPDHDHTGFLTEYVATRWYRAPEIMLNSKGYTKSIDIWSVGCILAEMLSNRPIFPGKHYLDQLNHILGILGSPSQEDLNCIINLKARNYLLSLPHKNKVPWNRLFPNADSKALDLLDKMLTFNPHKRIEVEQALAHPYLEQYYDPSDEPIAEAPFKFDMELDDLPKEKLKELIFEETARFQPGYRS
Sequence of Glycogen synthase kinase-3 beta (P49841 whole entry): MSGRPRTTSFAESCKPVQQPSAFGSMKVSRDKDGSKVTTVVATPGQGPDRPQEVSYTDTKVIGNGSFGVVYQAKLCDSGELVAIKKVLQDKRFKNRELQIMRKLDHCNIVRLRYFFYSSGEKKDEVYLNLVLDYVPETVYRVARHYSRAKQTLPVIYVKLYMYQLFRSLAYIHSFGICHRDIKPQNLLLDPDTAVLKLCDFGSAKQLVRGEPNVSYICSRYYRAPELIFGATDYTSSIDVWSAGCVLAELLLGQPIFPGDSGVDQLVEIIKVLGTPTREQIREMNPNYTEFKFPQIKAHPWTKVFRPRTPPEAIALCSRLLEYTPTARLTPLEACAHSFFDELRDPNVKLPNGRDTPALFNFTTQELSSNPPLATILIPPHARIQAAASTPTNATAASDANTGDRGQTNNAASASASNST
Sequence of 3-phosphoinositide-dependent protein kinase 1 (Homo sapiens) (O15530 whole entry, looked up): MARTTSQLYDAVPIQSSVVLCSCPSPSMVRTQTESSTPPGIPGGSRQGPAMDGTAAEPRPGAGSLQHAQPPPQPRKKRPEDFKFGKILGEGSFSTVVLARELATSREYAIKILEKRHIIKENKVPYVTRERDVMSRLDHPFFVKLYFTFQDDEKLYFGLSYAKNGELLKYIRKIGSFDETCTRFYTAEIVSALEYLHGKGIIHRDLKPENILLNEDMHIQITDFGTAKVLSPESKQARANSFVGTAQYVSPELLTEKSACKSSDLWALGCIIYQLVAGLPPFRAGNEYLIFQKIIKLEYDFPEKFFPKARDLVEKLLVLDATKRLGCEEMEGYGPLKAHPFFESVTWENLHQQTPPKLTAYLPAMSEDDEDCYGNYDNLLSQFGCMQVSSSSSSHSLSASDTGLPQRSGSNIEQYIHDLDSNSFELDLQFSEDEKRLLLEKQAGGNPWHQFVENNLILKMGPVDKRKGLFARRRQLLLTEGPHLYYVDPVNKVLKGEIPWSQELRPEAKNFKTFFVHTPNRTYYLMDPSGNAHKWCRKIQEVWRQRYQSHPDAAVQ
Sequence of Rho-associated protein kinase 2 (Homo sapiens) (O75116 whole entry, looked up): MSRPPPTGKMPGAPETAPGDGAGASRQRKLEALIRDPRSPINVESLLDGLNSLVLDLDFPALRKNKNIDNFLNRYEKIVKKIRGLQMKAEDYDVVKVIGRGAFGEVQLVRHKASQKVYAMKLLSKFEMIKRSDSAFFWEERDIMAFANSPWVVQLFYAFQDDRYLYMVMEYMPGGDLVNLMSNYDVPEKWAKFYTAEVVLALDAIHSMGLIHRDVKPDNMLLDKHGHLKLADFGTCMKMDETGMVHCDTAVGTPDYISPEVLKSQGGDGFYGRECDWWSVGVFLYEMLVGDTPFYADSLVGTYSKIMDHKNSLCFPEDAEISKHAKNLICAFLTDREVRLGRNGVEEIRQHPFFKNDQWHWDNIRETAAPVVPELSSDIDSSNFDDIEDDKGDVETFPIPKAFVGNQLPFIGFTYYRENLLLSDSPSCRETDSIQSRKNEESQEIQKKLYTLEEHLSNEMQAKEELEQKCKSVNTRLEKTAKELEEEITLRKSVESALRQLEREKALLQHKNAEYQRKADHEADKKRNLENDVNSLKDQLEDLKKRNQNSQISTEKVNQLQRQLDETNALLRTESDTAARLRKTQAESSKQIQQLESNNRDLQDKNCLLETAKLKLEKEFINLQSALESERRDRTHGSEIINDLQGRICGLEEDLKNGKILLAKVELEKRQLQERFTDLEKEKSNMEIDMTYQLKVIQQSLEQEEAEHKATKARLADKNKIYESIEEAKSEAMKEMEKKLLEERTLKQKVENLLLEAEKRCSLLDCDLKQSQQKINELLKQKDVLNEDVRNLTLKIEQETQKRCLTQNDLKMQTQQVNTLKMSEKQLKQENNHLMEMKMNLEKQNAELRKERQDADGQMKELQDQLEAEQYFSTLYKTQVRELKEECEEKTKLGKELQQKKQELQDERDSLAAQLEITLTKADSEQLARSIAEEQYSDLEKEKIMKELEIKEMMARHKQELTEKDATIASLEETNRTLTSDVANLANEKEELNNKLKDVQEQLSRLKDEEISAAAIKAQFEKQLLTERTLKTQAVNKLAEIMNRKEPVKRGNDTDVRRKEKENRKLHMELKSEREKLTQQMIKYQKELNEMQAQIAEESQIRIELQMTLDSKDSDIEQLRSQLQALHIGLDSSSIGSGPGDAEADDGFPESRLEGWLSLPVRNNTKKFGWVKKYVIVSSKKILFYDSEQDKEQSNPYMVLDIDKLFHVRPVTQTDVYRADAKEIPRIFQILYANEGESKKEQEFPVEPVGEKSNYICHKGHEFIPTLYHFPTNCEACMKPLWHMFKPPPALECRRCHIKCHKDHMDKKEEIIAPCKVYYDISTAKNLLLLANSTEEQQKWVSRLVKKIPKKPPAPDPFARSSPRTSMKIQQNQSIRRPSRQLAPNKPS
Sequence of Serine/threonine-protein kinase Chk2 (Homo sapiens) (O96017 whole entry): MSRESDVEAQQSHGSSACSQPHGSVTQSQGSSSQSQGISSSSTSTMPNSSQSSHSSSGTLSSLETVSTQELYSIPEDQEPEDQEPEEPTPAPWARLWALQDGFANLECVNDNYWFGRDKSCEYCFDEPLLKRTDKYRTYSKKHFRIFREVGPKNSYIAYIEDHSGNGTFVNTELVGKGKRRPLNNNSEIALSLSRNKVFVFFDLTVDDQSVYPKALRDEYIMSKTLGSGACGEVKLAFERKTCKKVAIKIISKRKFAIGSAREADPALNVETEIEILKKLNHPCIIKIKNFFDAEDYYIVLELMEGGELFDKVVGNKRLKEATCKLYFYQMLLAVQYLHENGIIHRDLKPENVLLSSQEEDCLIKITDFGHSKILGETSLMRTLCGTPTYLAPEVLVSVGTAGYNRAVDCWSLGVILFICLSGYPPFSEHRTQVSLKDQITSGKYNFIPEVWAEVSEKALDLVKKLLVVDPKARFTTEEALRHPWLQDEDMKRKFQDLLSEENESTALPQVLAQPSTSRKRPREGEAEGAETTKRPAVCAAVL
Sequence of Mitogen-activated protein kinase kinase kinase 14 (Q99558 whole entry): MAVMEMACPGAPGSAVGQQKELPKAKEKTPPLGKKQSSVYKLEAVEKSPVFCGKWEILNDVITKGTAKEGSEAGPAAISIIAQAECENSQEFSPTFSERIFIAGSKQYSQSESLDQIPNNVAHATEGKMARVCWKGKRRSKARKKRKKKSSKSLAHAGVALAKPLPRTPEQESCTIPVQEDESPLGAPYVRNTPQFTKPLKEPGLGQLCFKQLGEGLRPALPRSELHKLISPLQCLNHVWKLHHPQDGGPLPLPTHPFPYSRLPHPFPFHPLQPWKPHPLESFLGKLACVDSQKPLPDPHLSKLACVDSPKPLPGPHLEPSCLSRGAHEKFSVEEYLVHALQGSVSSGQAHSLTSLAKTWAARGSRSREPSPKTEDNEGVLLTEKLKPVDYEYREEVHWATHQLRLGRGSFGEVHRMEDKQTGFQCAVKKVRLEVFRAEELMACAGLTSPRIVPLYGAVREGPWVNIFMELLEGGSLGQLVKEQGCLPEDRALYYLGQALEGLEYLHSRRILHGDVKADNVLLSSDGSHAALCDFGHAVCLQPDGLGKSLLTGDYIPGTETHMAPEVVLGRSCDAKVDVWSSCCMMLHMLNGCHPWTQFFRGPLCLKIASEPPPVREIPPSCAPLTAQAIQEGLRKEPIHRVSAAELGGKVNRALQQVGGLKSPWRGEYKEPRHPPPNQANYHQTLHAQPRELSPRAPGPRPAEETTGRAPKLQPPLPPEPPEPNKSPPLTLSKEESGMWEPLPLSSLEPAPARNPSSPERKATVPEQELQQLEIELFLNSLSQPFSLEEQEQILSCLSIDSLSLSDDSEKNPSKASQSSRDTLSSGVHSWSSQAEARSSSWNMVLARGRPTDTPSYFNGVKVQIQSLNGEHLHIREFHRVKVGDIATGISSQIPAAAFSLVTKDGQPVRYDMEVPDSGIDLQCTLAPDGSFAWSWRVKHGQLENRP

Compound: CC1(C)CNC(=O)c2cc3ccc(C(=O)Nc4nc(C(=O)NC5CCN(Cc6ccccc6)CC5)cs4)cc3n21
IC50 [1]: 900 nM

Compound: O=C(Nc1nc(C(=O)NC2CCN(Cc3ccccc3)CC2)cs1)c1ccc2cc3n(c2c1)C1(CCC1)CNC3=O
IC50 [1]: 520 nM

Compound: CC1CNC(=O)c2[nH]c3ccc(C(=O)Nc4nc(C(=O)NC5CCCCC5)cs4)cc3c21 (stereo unspecified)
AUC(0-inf) [2]: 525 ng·h/mL
AUC(0-inf) [3]: 88 ng·h/mL
bioavailability [4]: 8%
CL(%Q) [5]: 18%
Cmax [6]: 60 nM
solubility [7]: < 0.1 µg/mL
MRT [8]: 0.8 h

Compound: CC(C)(C)CN1CCC(NC(=O)c2csc(NC(=O)c3ccc4cc5n(c4c3)C3(CCC3)CNC5=O)n2)CC1
inhibition [9]: 63%
AUC(0-inf) [2]: 165 ng·h/mL
AUC(0-inf) [3]: 446 ng·h/mL
inhibition [10]: 84%
bioavailability [4]: > 100%
CL(%Q) [5]: 30%
IC50 [11]: > 3 µM
Cmax [6]: 60 nM
inhibition [12]: 80%
inhibition [13]: 82%
solubility [7]: > 96 µg/mL
IC50 [1]: 300 nM
inhibition [14]: 60%
IC50 [15]: 920 nM
inhibition [16]: 94%
inhibition [17]: 98%
inhibition [18]: 75%
IC50 [19]: 480 nM
inhibition [20]: 86%
MRT [8]: 6.1 h
inhibition [21]: 92%
IC50 [22]: 93 nM
IC50 [23]: 25 nM
inhibition [24]: 98%

Compound: CC1CNC(=O)c2cc3ccc(C(=O)Nc4nc(C(=O)NC5CCOCC5)cs4)cc3n21 (stereo unspecified)
IC50 [1]: 5800 nM
IC50 [25]: 12 nM

Compound: CC1CNC(=O)c2[nH]c3ccc(C(=O)Nc4nc(C(=O)NC5CCN(C)CC5)cs4)cc3c21 (stereo unspecified)
IC50 [1]: > 5000 nM

Compound: CC1(C)CNC(=O)c2cc3ccc(C(=O)Nc4nc(C(=O)NC5CCCCC5)cs4)cc3n21
IC50 [1]: 1000 nM
IC50 [25]: 19 nM

Compound: CC1CNC(=O)c2cc3ccc(C(=O)Nc4nc(C(=O)NCC(C)(C)C)cs4)cc3n21 (stereo unspecified)
IC50 [1]: 2700 nM
IC50 [25]: 46 nM

Compound: CC(C)(C)CN1CCC(NC(=O)c2csc(NC(=O)c3ccc4cc5n(c4c3)C(C)(C)CNC5=O)n2)CC1
IC50 [1]: 430 nM

Compound: CC1CNC(=O)c2cc3ccc(C(=O)Nc4nc(C(=O)NC5CCN(Cc6ccccc6)CC5)cs4)cc3n21 (stereo unspecified)
solubility [7]: > 30 µg/mL
IC50 [1]: 1600 nM

More lines, main results first:

solubility [7]: > 30 µg/mL
IC50 [1]: 1670 nM
Compound: CC(C)CN1CCC(NC(=O)c2csc(NC(=O)c3ccc4cc5n(c4c3)C(C)CNC5=O)n2)CC1 (stereo unspecified)

IC50 [1]: > 5000 nM
Compound: CC1CNC(=O)c2cc3ccc(C(=O)Nc4nc(C(=O)NC5CCN(C)CC5)cs4)cc3n21 (stereo unspecified)

IC50 [1]: 1800 nM
IC50 [25]: 45 nM
Compound: CC1CCC(NC(=O)c2csc(NC(=O)c3ccc4cc5n(c4c3)C(C)CNC5=O)n2)CC1 (stereo unspecified)

AUC(0-inf) [2]: 535 ng·h/mL
AUC(0-inf) [3]: 115 ng·h/mL
bioavailability [4]: 11%
CL(%Q) [5]: 18%
Cmax [6]: 80 nM
solubility [7]: < 0.1 µg/mL
IC50 [1]: 1400 nM
IC50 [25]: 20 nM
MRT [8]: 2 h
Compound: CC1CNC(=O)c2cc3ccc(C(=O)Nc4nc(C(=O)NC5CCCCC5)cs4)cc3n21 (stereo unspecified)

IC50 [1]: 1700 nM
Compound: CN1CCC(NC(=O)c2csc(NC(=O)c3ccc4cc5n(c4c3)C3(CCC3)CNC5=O)n2)CC1

IC50 [1]: 2400 nM
Compound: CN1CCC(NC(=O)c2csc(NC(=O)c3ccc4cc5n(c4c3)C(C)(C)CNC5=O)n2)CC1

solubility [7]: > 30 µg/mL
IC50 [1]: 8900 nM
IC50 [25]: 7 nM
Compound: CCN1CCC(NC(=O)c2csc(NC(=O)c3ccc4cc5n(c4c3)C(C)CNC5=O)n2)CC1 (stereo unspecified)

concentration at 1.5 h [26]: 690 nM
solubility [7]: > 30 µg/mL
IC50 [1]: 735 nM
Compound: CC1CNC(=O)c2cc3ccc(C(=O)Nc4nc(C(=O)NC5CCN(CC(C)(C)C)CC5)cs4)cc3n21 (stereo unspecified)
Activity [27]: inactive
